Test results from ChEMBL document CHEMBL1137176, “Structure-activity relationships of piperazinebenzylamines as potent and selective agonists of the human melanocortin-4 receptor” (Bioorg Med Chem Lett, 2004).

Key:
Melanocortin receptor 4 [1] = target: T1, Melanocortin receptor 4 (Homo sapiens, UniProt P32245); test: Displacement of [125I]NDP-MSH from HEK293 cells expressing human melanocortin-4 receptor; assay type: cell-based
Melanocortin receptor 4 [2] = target: T1, Melanocortin receptor 4; test: Effective concentration against cAMP release in CHO cells expressing human melanocortin-4 receptor; assay type: functional, cell-based
[3] = target: T2, Melanocyte-stimulating hormone receptor (Homo sapiens, UniProt Q01726); test: Displacement of [125I]NDP-MSH from human melanocortin-1 receptor expressed in HEK 293 cells at 10 uM; assay type: cell-based; conditions: HEK293
Target sequence in this assay (Q01726 whole entry, looked up): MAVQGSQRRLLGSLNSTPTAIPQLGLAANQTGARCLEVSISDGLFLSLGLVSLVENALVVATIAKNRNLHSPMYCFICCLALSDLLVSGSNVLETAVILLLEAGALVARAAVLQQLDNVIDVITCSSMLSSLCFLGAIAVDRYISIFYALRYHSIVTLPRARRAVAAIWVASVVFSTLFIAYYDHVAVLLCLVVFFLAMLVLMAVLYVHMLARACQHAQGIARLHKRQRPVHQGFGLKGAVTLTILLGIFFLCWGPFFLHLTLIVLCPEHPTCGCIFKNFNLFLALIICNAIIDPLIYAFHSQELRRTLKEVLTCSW

Melanocortin receptor 5 = Melanocortin receptor 5 (Homo sapiens, UniProt P33032); test: Displacement of [125I]NDP-MSH from HEK293 cells expressing human melanocortin-5 receptor; assay type: cell-based
Sequence of Melanocortin receptor 5 (P33032 whole entry): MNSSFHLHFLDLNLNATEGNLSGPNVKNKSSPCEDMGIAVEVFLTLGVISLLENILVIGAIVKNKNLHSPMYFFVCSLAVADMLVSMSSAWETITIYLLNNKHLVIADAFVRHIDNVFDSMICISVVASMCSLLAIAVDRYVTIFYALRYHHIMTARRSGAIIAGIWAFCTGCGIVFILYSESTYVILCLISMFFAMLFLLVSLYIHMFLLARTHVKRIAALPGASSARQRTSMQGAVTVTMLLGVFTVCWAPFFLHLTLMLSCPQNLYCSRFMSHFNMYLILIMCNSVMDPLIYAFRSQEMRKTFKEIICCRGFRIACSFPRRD

Melanocortin receptor 4 [4] = target: T1, Melanocortin receptor 4; test: Effective concentration for cAMP release in HEK293 cells expressing human melanocortin-4 receptor; assay type: functional, cell-based
Melanocortin receptor 3 = Melanocortin receptor 3 (Homo sapiens, UniProt P41968); test: Displacement of [125I]NDP-MSH from HEK293 cells expressing human melanocortin-3 receptor; assay type: cell-based
Sequence of Melanocortin receptor 3 (P41968 whole entry): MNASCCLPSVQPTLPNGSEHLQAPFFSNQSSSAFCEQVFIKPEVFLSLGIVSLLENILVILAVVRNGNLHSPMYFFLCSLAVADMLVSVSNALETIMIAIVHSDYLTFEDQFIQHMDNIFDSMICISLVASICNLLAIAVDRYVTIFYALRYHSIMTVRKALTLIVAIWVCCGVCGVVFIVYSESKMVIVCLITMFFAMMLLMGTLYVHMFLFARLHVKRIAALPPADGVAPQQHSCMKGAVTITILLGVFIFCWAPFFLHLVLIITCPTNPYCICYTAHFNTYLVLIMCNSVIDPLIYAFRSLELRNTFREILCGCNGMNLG

[5] = target: T2, Melanocyte-stimulating hormone receptor; test: Displacement of [125I]NDP-MSH from HEK293 cells expressing human melanocortin-1 receptor; assay type: cell-based
Target sequence in this assay (Q01726 whole entry): as the sequence (Q01726 whole entry, looked up) above

Melanocortin receptor 4 [6] = target: T1, Melanocortin receptor 4; test: Percent intrinsic activity of alpha-MSH-stimulated cAMP level in HEK293 cells expressing human melanocortin-4 receptor; assay type: functional, cell-based

T1 sequence (P32245 whole entry): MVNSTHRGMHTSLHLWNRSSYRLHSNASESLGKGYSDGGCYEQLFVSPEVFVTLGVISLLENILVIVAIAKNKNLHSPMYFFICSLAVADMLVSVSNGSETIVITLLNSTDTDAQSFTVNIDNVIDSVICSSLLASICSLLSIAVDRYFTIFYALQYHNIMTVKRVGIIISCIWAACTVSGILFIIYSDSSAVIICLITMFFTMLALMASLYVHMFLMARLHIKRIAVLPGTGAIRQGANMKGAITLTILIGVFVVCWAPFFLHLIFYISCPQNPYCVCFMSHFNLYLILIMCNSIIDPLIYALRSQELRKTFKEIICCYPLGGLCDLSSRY

| Ki (Melanocortin receptor 4 [1]) [nM] | EC50 (Melanocortin receptor 4 [2]) [nM] | Compound | also measured |
| --- | --- | --- | --- |
| 120 | 36 | O=C(N[C@H](Cc1ccc(Cl)cc1)C(=O)N1CCN(c2ccccc2CNCCCO)CC1)[C@H]1Cc2ccccc2CN1 |  |
| 102 | 208 | O=C(N[C@H](Cc1ccc(Cl)cc1)C(=O)N1CCN(c2ccccc2CNCC2CCNCC2)CC1)[C@H]1Cc2ccccc2CN1 |  |
| 24 | 146 | O=C(N[C@H](Cc1ccc(Cl)cc1)C(=O)N1CCN(c2ccccc2CN2CCC(N3CCCC3)CC2)CC1)[C@H]1Cc2ccccc2CN1 |  |
| 35 | 190 | CN(CCc1ccccn1)Cc1ccccc1N1CCN(C(=O)[C@@H](Cc2ccc(Cl)cc2)NC(=O)[C@H]2Cc3ccccc3CN2)CC1 |  |
| 270 | 110 | O=C(N[C@H](Cc1ccc(Cl)cc1)C(=O)N1CCN(c2ccccc2Cn2cncn2)CC1)[C@H]1Cc2ccccc2CN1 | inhibition [3]: 36%; Ki (Melanocortin receptor 5): 1200 nM |
| 6.4 | 3.8 | CC(NC1CCCNC1)c1ccccc1N1CCN(C(=O)[C@@H](Cc2ccc(Cl)cc2)NC(=O)[C@H]2Cc3ccccc3CN2)CC1 (stereo partly drawn) | Ki (Melanocortin receptor 5): 270 nM; EC50 (Melanocortin receptor 4 [4]): 4.7 nM; Ki (Melanocortin receptor 3): 2000 nM; Ki [5]: 1500 nM; IA (Melanocortin receptor 4 [6]): 100% |
| 13 | 12 | CC(N[C@H]1CCNC1)c1ccccc1N1CCN(C(=O)[C@@H](Cc2ccc(Cl)cc2)NC(=O)[C@H]2Cc3ccccc3CN2)CC1 (stereo partly drawn) | Ki (Melanocortin receptor 5): 590 nM; Ki (Melanocortin receptor 3): 3600 nM; Ki [5]: 2100 nM |
| 19 | 18 | C[C@H]1CN(Cc2ccccc2N2CCN(C(=O)[C@@H](Cc3ccc(Cl)cc3)NC(=O)[C@H]3Cc4ccccc4CN3)CC2)[C@@H](C)CN1 |  |
| 81 | 487 | O=C(N[C@H](Cc1ccc(Cl)cc1)C(=O)N1CCN(c2ccccc2CNCCc2ccc(F)cc2)CC1)[C@H]1Cc2ccccc2CN1 |  |
| 49 | 51 | COCCN(C)Cc1ccccc1N1CCN(C(=O)[C@@H](Cc2ccc(Cl)cc2)NC(=O)[C@H]2Cc3ccccc3CN2)CC1 |  |
| 77 | 94 | CN(Cc1cccnc1)Cc1ccccc1N1CCN(C(=O)[C@@H](Cc2ccc(Cl)cc2)NC(=O)[C@H]2Cc3ccccc3CN2)CC1 |  |
|  |  | O=C(N[C@H](Cc1ccc(Cl)cc1)C(=O)N1CCC(Cn2cncn2)(C2CCCCC2)CC1)[C@H]1Cc2ccccc2CN1 | Ki (Melanocortin receptor 5): 860 nM |
| 12 | 138 | CC(NCc1ccco1)c1ccccc1N1CCN(C(=O)[C@@H](Cc2ccc(Cl)cc2)NC(=O)[C@H]2Cc3ccccc3CN2)CC1 (stereo partly drawn) |  |
| 13 | 15 | CC(N[C@H]1CCCCC1N)c1ccccc1N1CCN(C(=O)[C@@H](Cc2ccc(Cl)cc2)NC(=O)[C@H]2Cc3ccccc3CN2)CC1 (stereo partly drawn) |  |
| 90 | 253 | O=C(N[C@H](Cc1ccc(Cl)cc1)C(=O)N1CCN(c2ccccc2CNC2CC2)CC1)[C@H]1Cc2ccccc2CN1 |  |
| 24 | 577 | CC(NCCc1cccs1)c1ccccc1N1CCN(C(=O)[C@@H](Cc2ccc(Cl)cc2)NC(=O)[C@H]2Cc3ccccc3CN2)CC1 (stereo partly drawn) |  |
| 127 | 91 | NCCNCc1ccccc1N1CCN(C(=O)[C@@H](Cc2ccc(Cl)cc2)NC(=O)[C@H]2Cc3ccccc3CN2)CC1 |  |

| Ki (Melanocortin receptor 4 [1]) [nM] | EC50 (Melanocortin receptor 4 [2]) [nM] | Compound | also measured |
| --- | --- | --- | --- |
|  |  | O=C(N[C@H](Cc1ccc(Cl)cc1)C(=O)N1CCN(c2ccccc2CNCCc2cccs2)CC1)[C@H]1Cc2ccccc2CN1 | Ki (Melanocortin receptor 5): 240 nM; Ki (Melanocortin receptor 3): 1800 nM; Ki [5]: 6000 nM |
| 145 | 300 | O=C(N[C@H](Cc1ccc(Cl)cc1)C(=O)N1CCN(c2ccccc2CN2CCN(c3ccccc3)CC2)CC1)[C@H]1Cc2ccccc2CN1 |  |
| 84 | 632 | CN(Cc1ccccc1)Cc1ccccc1N1CCN(C(=O)[C@@H](Cc2ccc(Cl)cc2)NC(=O)[C@H]2Cc3ccccc3CN2)CC1 |  |
| 52 | 240 | CCN(CC)Cc1ccccc1N1CCN(C(=O)[C@@H](Cc2ccc(Cl)cc2)NC(=O)[C@H]2Cc3ccccc3CN2)CC1 |  |
|  | 2.9 | CCCC(=O)C1(C2CCCCC2)CCN(C(=O)[C@@H](Cc2ccc(Cl)cc2)NC(=O)[C@@H](Cc2ncc[nH]2)NC(=O)c2ccccc2)CC1 |  |
| 33 | 2060 | CC(NCCc1ccccc1F)c1ccccc1N1CCN(C(=O)[C@@H](Cc2ccc(Cl)cc2)NC(=O)[C@H]2Cc3ccccc3CN2)CC1 (stereo partly drawn) |  |
| 14 | 460 | O=C(N[C@H](Cc1ccc(Cl)cc1)C(=O)N1CCN(c2ccccc2CNCCc2cccc(F)c2)CC1)[C@H]1Cc2ccccc2CN1 |  |
| 27 | 910 | O=C(N[C@H](Cc1ccc(Cl)cc1)C(=O)N1CCN(c2ccccc2CNCCc2ccccc2F)CC1)[C@H]1Cc2ccccc2CN1 | Ki (Melanocortin receptor 5): 260 nM; Ki (Melanocortin receptor 3): 2300 nM |
| 53 | 274 | O=C(N[C@H](Cc1ccc(Cl)cc1)C(=O)N1CCN(c2ccccc2CNCc2ccco2)CC1)[C@H]1Cc2ccccc2CN1 |  |
| 66 | 164 | O=C(N[C@H](Cc1ccc(Cl)cc1)C(=O)N1CCN(c2ccccc2CNC2CCCC2)CC1)[C@H]1Cc2ccccc2CN1 |  |
| 11 | 72 | CC(NC1CCCC1)c1ccccc1N1CCN(C(=O)[C@@H](Cc2ccc(Cl)cc2)NC(=O)[C@H]2Cc3ccccc3CN2)CC1 (stereo partly drawn) |  |
| 490 | 90 | O=C(O)CCNCc1ccccc1N1CCN(C(=O)[C@@H](Cc2ccc(Cl)cc2)NC(=O)[C@H]2Cc3ccccc3CN2)CC1 |  |
| 380 | 274 | NCc1ccccc1N1CCN(C(=O)[C@@H](Cc2ccc(Cl)cc2)NC(=O)[C@H]2Cc3ccccc3CN2)CC1 | Ki (Melanocortin receptor 5): 2300 nM |
| 23 | 174 | CC(NC1CC1)c1ccccc1N1CCN(C(=O)[C@@H](Cc2ccc(Cl)cc2)NC(=O)[C@H]2Cc3ccccc3CN2)CC1 (stereo partly drawn) |  |
| 55 | 40 | CN(CCO)Cc1ccccc1N1CCN(C(=O)[C@@H](Cc2ccc(Cl)cc2)NC(=O)[C@H]2Cc3ccccc3CN2)CC1 |  |
| 25 | 34 | CC(NC1CCC(N)CC1)c1ccccc1N1CCN(C(=O)[C@@H](Cc2ccc(Cl)cc2)NC(=O)[C@H]2Cc3ccccc3CN2)CC1 (stereo partly drawn) |  |
